From PMC5826148, “Whole-Cell Screen of Fragment Library Identifies Gut Microbiota Metabolite Indole Propionic Acid as Antitubercular” (Antimicrobial Agents and Chemotherapy, 2018)
≈ marks a conversion by molar mass, not a printed value. Like-named read-outs stand apart in the source and are kept apart here.

Assays:
[1] = system: M. tuberculosis H37Rv; assay: M. tuberculosis growth inhibition dose-response (MIC50), turbidity readout; type: cell-based, Mycobacterium tuberculosis; settings: H37Rv, 10 days, read-out: Antibacterial activity (MIC50) M. tuberculosis
[2] = system: M. tuberculosis H37Rv; assay: Bactericidal activity, CFU enumeration on agar after treatment; type: cell-based, Mycobacterium tuberculosis; settings: M. tuberculosis, 1 mM, log CFU/ml reduction from initial inoculum
[3] = system: M. tuberculosis; assay: Growth inhibition in acidic medium (pH 6.2); type: cell-based, Mycobacterium tuberculosis; settings: pH 6.2, read-out: Activity (MIC50) in acidic medium (pH 6.2)
[4] = system: M. bovis BCG Pasteur; assay: microbe, parasite or virus in culture; type: cell-based
[5] = system: M. smegmatis; assay: Spectrum of activity: M. smegmatis growth inhibition; type: cell-based; settings: 1 day, read-out: Antibacterial activity (MIC50) M. smegmatis
[6] = system: M. avium; assay: Spectrum of activity: M. avium growth inhibition; type: cell-based; settings: 4 days, read-out: Antibacterial activity (MIC50) M. avium
[7] = system: M. abscessus; assay: Spectrum of activity: M. abscessus growth inhibition; type: cell-based; settings: 3 days, read-out: Antibacterial activity (MIC50) M. abscessus
[8] = system: Staphylococcus aureus; assay: Spectrum of activity: S. aureus growth inhibition; type: cell-based; settings: LB medium, overnight, read-out: Antibacterial activity (MIC50) S. aureus
[9] = system: Escherichia coli; assay: Spectrum of activity: E. coli growth inhibition; type: cell-based; settings: LB medium, overnight, read-out: Antibacterial activity (MIC50) E. coli
[10] = system: mice; settings: 100 mg/kg oral on three consecutive days, monitored 7 days
[11] = parameters: method as in PMID 24563545; settings: cited from earlier work
[12] = system: human red blood cells (RBCs); assay: Red blood cell lysis assay; settings: hemolysis
[13] = Pharmacokinetic study in uninfected CD-1 mice; settings: for AUC(0-t) / Cmax: Ave +/- SD, n=3
[14] = Endogenous plasma levels of IPA in naive mice
[15] = system: M. tuberculosis H37Rv; assay: Mouse model of acute M. tuberculosis infection
[16] = Cytotoxicity assay, THP-1 cells (CellTiter 96 AQueous One); settings: human
[17] = Cytotoxicity assay, HepG2 cells (CellTiter 96 AQueous One); settings: human, HepG2 cells
[18] = system: THP-1 cells; assay: Cytotoxicity assay, THP-1 cells (CellTiter 96 AQueous One); settings: read-out: Cytotoxicity THP-1 cells CC50; 24 h
[19] = system: HepG2 cells; assay: Cytotoxicity assay, HepG2 cells (CellTiter 96 AQueous One); settings: read-out: Cytotoxicity HepG2 cells CC50; 24 h
[20] = Day 42, IPA 100 mg/kg, INH 25 mg/kg, oral gavage 6 days/week, 4 weeks

For O=C(O)CCc1c[nH]c2ccccc12 [Fragment F1], the MIC50 ([1]; Mycobacterium tuberculosis, 240 h) was 68 µM (≈ 12.9 µg/mL), the log reduction at 1000 µM ([2]; Mycobacterium tuberculosis, H37RV, read-out: Bactericidal activity (log reduction) at 1 mM) was 1.76 and the MIC50 ([3]; Mycobacterium tuberculosis) was 62 µM (≈ 11.7 µg/mL). The MIC50 ([4]; Mycobacterium tuberculosis variant bovis BCG, BCG, read-out: Antibacterial activity (MIC50) M. bovis BCG) was 98 µM (≈ 18.5 µg/mL), the MIC50 ([5]; Mycolicibacterium smegmatis, 24 h) was 477 µM (≈ 90.3 µg/mL) and the MIC50 ([6]; Mycobacterium avium, 96 h) was 119 µM (≈ 22.5 µg/mL). For the same compound, the MIC50 ([7]; Mycobacteroides abscessus, 72 h) was over 500 µM, the MIC50 ([8]; Staphylococcus aureus) was over 500 µM and the MIC50 ([9]; Escherichia coli) was over 500 µM. The “Acute toxicity: behavior and gross pathology of major organs” value [10] was “None of the mice showed abnormal behavior”, the “logarithm of partition coefficient between n-octanol and water” value [11] was 2.15 and the “RBCs HC50” value [12] was >1,000 μM. For the same compound, the “time plasma levels above the MIC50” value ([13]; 100 mg/kg oral) was “more than 50 % of the dosing interval”, the Vd ([13]; CD-1, mouse, plasma, iv, 5 mg/kg) was 0.25 L/kg and the AUC(0-t) ([13]; CD-1, mouse, plasma, iv, 5 mg/kg, AUC[0-8], Intravenous 5 mg/kg) was 72 ± 3 µg·h/mL. It also gave an AUC(0-t) ([13]; CD-1, mouse, plasma, po, 100 mg/kg, AUC[0-8], Oral 100 mg/kg in CMC (suspension)) of 315 ± 88 µg·h/mL, an AUC(0-t) ([13]; CD-1, mouse, plasma, po, 100 mg/kg, AUC[0-8], Oral 100 mg/kg in PEG (solution)) of 312 ± 59 µg·h/mL and an AUC(0-t) ([13]; CD-1, mouse, plasma, po, 100 mg/kg, AUC[0-24], Oral 100 mg/kg in CMC (suspension)) of 442 ± 271 µg·h/mL. It also gave an AUC(0-t) ([13]; CD-1, mouse, plasma, po, 100 mg/kg, AUC[0-24], Oral 100 mg/kg in PEG (solution)) of 471 ± 129 µg·h/mL, a Cmax ([13]; CD-1, mouse, plasma, po, 100 mg/kg, Oral 100 mg/kg in CMC (suspension)) of 67 ± 28 µg/mL and a Cmax ([13]; CD-1, mouse, plasma, po, 100 mg/kg, Oral 100 mg/kg in PEG (solution)) of 118 ± 10 µg/mL. For the same compound, the bioavailability ([13]; CD-1, mouse, plasma, po, 100 mg/kg, F (oral bioavailability), Oral 100 mg/kg in CMC (suspension)) was 30.8%, the bioavailability ([13]; CD-1, mouse, plasma, po, 100 mg/kg, F (oral bioavailability), Oral 100 mg/kg in PEG (solution)) was 32.9% and the bioavailability ([13]; CD-1, mouse, plasma, po, 100 mg/kg, oral bioavailability, 100 mg/kg oral) was 30 to 33%. For the same compound, the “Endogenous plasma level, Average” value ([14]; time 0.25 h) was 589 ng/mL, the “Endogenous plasma level, Average” value ([14]; time 1 h) was 514 ng/mL and the “Endogenous plasma level, Average” value ([14]; time 3 h) was 455 ng/mL. For the same compound, the “Endogenous plasma level, Average” value ([14]; time 5 h) was 404 ng/mL, the “Endogenous plasma level, Average” value ([14]; time 8 h) was 629 ng/mL and the “reduction of bacterial load in the spleen versus untreated mice” value ([15]; 100 mg/kg oral, 6 days/week for 4 weeks) was 7 fold. The “adverse events or abnormal behavior over the course of drug treatment” value ([15]; 100 mg/kg, six consecutive days per week for 4 weeks, infected mice) was “None of the animals showed signs of adverse events or abnormal behavior”, the “Lungs CFU log10, mean difference from drug-free control” value [15, 20] was -0.28 log10 CFU and the “Spleen CFU log10, mean difference from drug-free control” value [15, 20] was -0.82 log10 CFU. It also gave a CC50 at 24 h [16] of over 1000 µM and a CC50 at 24 h [17] of over 1000 µM.

For NC(=S)COc1cccc(Cl)c1 [Fragment F13, 2-(3-Chlorophenoxy) ethanethioamide], the MIC50 [1] was 211 µM (≈ 42.6 µg/mL), the “Bactericidal activity (log reduction) at 1 mM” value [2] was 0.90 log reduction and the MIC50 [3] was 75 µM (≈ 15.1 µg/mL). For the same compound, the “Antibacterial activity (MIC50) M. bovis BCG” value [4] was over 500 µM, the MIC50 [5] was 409 µM (≈ 82.5 µg/mL) and the MIC50 [6] was 387 µM (≈ 78 µg/mL). For the same compound, the MIC50 [7] was 289 µM (≈ 58.3 µg/mL), the MIC50 [8] was over 500 µM and the MIC50 [9] was over 500 µM. The “RBCs HC50” value [12] was 904 µM, the CC50 [18] was 656 µM and the CC50 [19] was 467 µM.
